{"source": "patent US20050180922A1", "about": "“Block co-polymer worm micelles and methods of use therefor” (priority 2004, published 2005)", "key": {"microtubules": {"test_system": "microtubules", "conditions": "cited from earlier work"}, "[1]": {"test": "Taxol loading into worm micelle core (HPLC)", "format": "physicochemical", "conditions": "confirmed by HPLC", "experimental": "In vitro assays. Drug delivery with liposomes entails loading either hydrophilic drugs or nucleic acids into the interior of the assembly (Wagner et al., Proc. Nat'l Acad. Sci. USA 89:7934 (1992)), or hydrophobic drugs into the lipid bilayer (Wenk et al., J. Pharm. Sci. 85:228 (1996)). The worm micelles in this study were loaded with the drug taxol, one of a variety of hydrophobic drugs available for killing tumor cells. Taxol binds to, and toxically stabilizes, microtubules at 1-10 nM (Gloushankova et al., Proc. Nat'l. Acad. Sci. USA 91:8597 (1994))."}}, "data": [{"molecule": "CC(=O)O[C@H]1C(=O)[C@@]2(C)[C@H]([C@H](OC(=O)c3ccccc3)[C@]3(O)C[C@H](OC(=O)[C@H](O)[C@@H](NC(=O)c4ccccc4)c4ccccc4)C(C)=C1C3(C)C)[C@]1(OC(C)=O)CO[C@@H]1C[C@@H]2O", "note": "[taxol, paclitaxel]", "values": [{"measurement": "concentration that binds and toxically stabilizes microtubules", "setting": "microtubules", "value": "1 to 10", "unit": "nM"}, {"measurement": "taxol partition into hydrophobic core", "setting": "[1]", "value": "one molecule of taxol partitions into the hydrophobic core per ten copolymers"}]}]}
